For 25 molecules, IC50 results are on record in patent US8440710B2, “HSL inhibitors useful in the treatment of diabetes” (Hoffmann-La Roche Inc., priority 2009, dated 2013).

Each structure is given as a SMILES string.

This assay addresses T1, human HSL (Homo sapiens, UniProt Q05469).
T1 construct: generate a full length human HSL ORF with a 3′-His6 tag; made in house; host or cells: High 5 insect cells (baculovirus, pFast-BAC)
T1 sequence (Q05469 1-1076): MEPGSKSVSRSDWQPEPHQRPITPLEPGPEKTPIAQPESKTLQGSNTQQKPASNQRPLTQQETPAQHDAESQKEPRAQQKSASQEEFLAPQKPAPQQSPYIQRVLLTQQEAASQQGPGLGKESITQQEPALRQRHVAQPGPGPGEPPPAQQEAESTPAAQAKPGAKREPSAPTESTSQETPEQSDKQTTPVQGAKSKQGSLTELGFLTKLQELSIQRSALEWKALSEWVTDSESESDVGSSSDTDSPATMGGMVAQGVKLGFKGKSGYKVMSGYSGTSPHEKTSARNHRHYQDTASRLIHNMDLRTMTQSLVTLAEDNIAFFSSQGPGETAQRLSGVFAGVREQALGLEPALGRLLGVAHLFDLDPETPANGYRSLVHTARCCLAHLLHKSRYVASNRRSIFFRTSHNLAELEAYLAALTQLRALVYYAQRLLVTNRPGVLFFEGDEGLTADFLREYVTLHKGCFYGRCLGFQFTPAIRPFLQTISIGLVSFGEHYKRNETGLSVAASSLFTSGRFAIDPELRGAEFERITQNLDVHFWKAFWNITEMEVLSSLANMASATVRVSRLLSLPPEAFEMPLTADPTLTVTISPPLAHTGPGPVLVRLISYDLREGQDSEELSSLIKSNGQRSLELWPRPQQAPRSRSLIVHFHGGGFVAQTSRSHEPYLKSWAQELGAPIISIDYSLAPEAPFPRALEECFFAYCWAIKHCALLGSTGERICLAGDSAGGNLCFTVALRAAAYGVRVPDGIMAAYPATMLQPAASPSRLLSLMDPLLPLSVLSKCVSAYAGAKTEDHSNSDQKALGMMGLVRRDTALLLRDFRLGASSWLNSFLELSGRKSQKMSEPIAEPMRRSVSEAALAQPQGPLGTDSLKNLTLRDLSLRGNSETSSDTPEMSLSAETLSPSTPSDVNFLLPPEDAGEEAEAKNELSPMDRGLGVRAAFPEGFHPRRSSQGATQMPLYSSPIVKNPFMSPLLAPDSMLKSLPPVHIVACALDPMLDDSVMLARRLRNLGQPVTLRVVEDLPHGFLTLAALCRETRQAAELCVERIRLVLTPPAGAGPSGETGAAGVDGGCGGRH
In words: Human Hormone-Sensitive Lipase (HSL) enzyme inhibition assay (colorimetric, DMPT substrate). The format is biochemical. The settings on record: human full length HSL-His6, 2,3-dimercapto-1-propanol tributyrate substrate, 37° C. 20 minutes, absorbance at 405 nm; read-out: HSL hum IC50. The method, boiled down: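 Full-length human HSL with C-terminal His6, expressed in baculovirus-infected High 5 cells and Ni-NTA purified, was added (15 ug/ml stock) to 1.5 mM DMPT in 100 mM MOPS pH 7.2, 0.2 mg/ml fatty acid-free BSA containing compound. After 20 min at 37 °C, DTNB with SDS/Triton X-100 was added; A405 read after 15 min at RT.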

For the molecule `CCO[C@H](c1ccc(N2CC[C@]3(CC[C@@](O)(COC)CC3)C2=O)cc1)C(F)(F)F` [Example 140, (5α,8α)-2-(4-((R)-1-Ethoxy-2,2,2-trifluoroethyl)phenyl)-8-hydroxy-8-(methoxymethyl)-2-aza-spiro[4.5]decan-1-one], the IC50 (as a rule, the midpoint of a concentration-inhibition curve) stood at 160 nM. In the case of `CCCO[C@H](c1ccc(N2CC[C@]3(CC[C@@](O)(COC)CC3)C2=O)cc1)C(F)(F)F` [Example 141, (5α,8α)-8-Hydroxy-8-(methoxymethyl)-2-(4-((R)-2,2,2-trifluoro-1-propoxyethyl)phenyl)-2-aza-spiro[4.5]decan-1-one] it was 30 nM. In the case of `C=CC[C@]1(O)CC[C@]2(CCN(c3ccc(O[C@H](C)C(F)(F)F)cc3)C2=O)CC1` [Example 142, (5α,8α)-8-Allyl-8-hydroxy-2-[4-((R)-2,2,2-trifluoro-1-methyl-ethoxy)-phenyl]-2-aza-spiro[4.5]decan-1-one] it was 10 nM; in that of `C=CC[C@]1(O)CC[C@@]2(CCN(c3ccc(O[C@H](C)C(F)(F)F)cc3)C2=O)CC1` [Example 143, (5α,8β)-8-Allyl-8-hydroxy-2-[4-((R)-2,2,2-trifluoro-1-methyl-ethoxy)-phenyl]-2-aza-spiro[4.5]decan-1-one], 1480 nM; in that of `C[C@@H](Oc1ccc(N2CC[C@]3(CC[C@@](O)(COCc4ccccc4)CC3)C2=O)cc1)C(F)(F)F` [Example 144, (5α,8α)-8-(Benzyloxymethyl)-8-hydroxy-2-[4-((R)-2,2,2-trifluoro-1-methyl-ethoxy)-phenyl]-2-aza-spiro[4.5]decan-1-one], 10 nM.

On to `C[C@@H](Oc1ccc(N2CC[C@]3(CC[C@@](O)(CO)CC3)C2=O)cc1)C(F)(F)F` [Example 145, (5α,8α)-8-Hydroxy-8-(hydroxymethyl)-2-[4-((R)-2,2,2-trifluoro-1-methyl-ethoxy)-phenyl]-2-aza-spiro[4.5]decan-1-one], for which the 50% inhibitory concentration (IC50) was 390 nM. In the case of `COC[C@]1(O)CC[C@]2(CCN(c3ccc(O[C@@H](C)C(F)(F)F)cc3)C2=O)CC1` [Example 146, (5α,8α)-8-Hydroxy-8-methoxymethyl-2-[4-((S)-2,2,2-trifluoro-1-methyl-ethoxy)-phenyl]-2-aza-spiro[4.5]decan-1-one] it was 20 nM. In the case of `COC[C@]1(O)CC[C@]2(CCN(c3ccc(O[C@H](C)C(F)(F)F)cc3)C2=O)CC1` [Example 147, (5α,8α)-8-Hydroxy-8-(methoxymethyl)-2-[4-((R)-2,2,2-trifluoro-1-methyl-ethoxy)-phenyl]-2-aza-spiro[4.5]decan-1-one] it was 30 nM; in that of `CC(C)[C@]1(O)CC[C@]2(CCN(c3ccc(O[C@@H](C)C(F)(F)F)nc3)C2=O)CC1` [Example 148, (5α,8α)-8-Hydroxy-8-isopropyl-2-[6-((S)-2,2,2-trifluoro-1-methyl-ethoxy)pyridin-3-yl]-2-aza-spiro[4.5]decan-1-one], 20 nM. With `CC(C)[C@]1(O)CC[C@@]2(CCN(c3ccc(O[C@@H](C)C(F)(F)F)nc3)C2=O)CC1` [Example 149, (5α,8β)-8-Hydroxy-8-isopropyl-2-[6-((S)-2,2,2-trifluoro-1-methyl-ethoxy)pyridin-3-yl]-2-aza-spiro[4.5]decan-1-one], the half-maximal inhibitory concentration (IC50) amounted to 1650 nM. The value for `CC(C)[C@]1(O)CC[C@]2(CCN(c3ccc(O[C@H](C)C(F)(F)F)nc3)C2=O)CC1` [Example 150, (5α,8α)-8-Hydroxy-8-isopropyl-2-[6-((R)-2,2,2-trifluoro-1-methyl-ethoxy)-pyridin-3-yl]-2-aza-spiro[4.5]decan-1-one] was 20 nM; that for `CC(C)[C@]1(O)CC[C@@]2(CCN(c3ccc(O[C@H](C)C(F)(F)F)nc3)C2=O)CC1` [Example 151, (5α,8β)-8-Hydroxy-8-isopropyl-2-[6-((R)-2,2,2-trifluoro-1-methyl-ethoxy)pyridin-3-yl]-2-aza-spiro[4.5]decan-1-one] was 1850 nM. The value for `COC[C@]1(O)CC[C@]2(CCN(c3ccc(O[C@H](C)C(F)(F)F)nc3)C2=O)CC1` [Example 152, (5α,8α)-8-Hydroxy-8-methoxymethyl-2-[6-((R)-2,2,2-trifluoro-1-methyl-ethoxy)-pyridin-3-yl]-2-aza-spiro[4.5]decan-1-one] was 50 nM.

As to `COC[C@]1(O)CC[C@]2(CCN(c3ccc(O[C@@H](C)C(F)(F)F)nc3)C2=O)CC1` [Example 153, (5α,8α)-8-Hydroxy-8-methoxymethyl-2-[6-((S)-2,2,2-trifluoro-1-methyl-ethoxy)-pyridin-3-yl]-2-aza-spiro[4.5]decan-1-one], the IC50 was found to be 50 nM. In the case of `COC[C@]1(O)CC[C@]2(CCN(c3ccc(CC(F)(F)F)cc3)C2=O)CC1` [Example 154, (5α,8α)-8-Hydroxy-8-methoxymethyl-2-[4-(2,2,2-trifluoro-ethyl)-phenyl]-2-aza-spiro[4.5]decan-1-one] it was 30 nM. The value for `O=C1N(c2ccc([C@@H](O)C(F)(F)F)cc2)CC[C@]12CC[C@@](O)(COCC(F)(F)F)CC2` [Example 155, (5α,8α)-8-Hydroxy-8-(2,2,2-trifluoro-ethoxymethyl)-2-[4-((R)-2,2,2-trifluoro-1-hydroxy-ethyl)-phenyl]-2-aza-spiro[4.5]decan-1-one] was 9 nM. In the case of `CN(C)C(=O)C[C@]1(O)CC[C@]2(CCN(c3ccc(OC(F)(F)F)cc3)C2=O)CC1` [Example 156, 2-[(5α,8α)-8-Hydroxy-1-oxo-2-(4-trifluoromethoxy-phenyl)-2-aza-spiro[4.5]dec-8-yl]-N,N-dimethyl-acetamide] it was 60 nM; in that of `CN(C)C(=O)C[C@]1(O)CC[C@]2(CCN(c3ccc(OCC(F)(F)F)cc3)C2=O)CC1` [Example 157, 2-((5α,8α)-8-Hydroxy-1-oxo-2-(4-(2,2,2-trifluoroethoxy)phenyl)-2-aza-spiro[4.5]decan-8-yl)-N,N-dimethylacetamide], 250 nM; in that of `CNC(=O)C[C@]1(O)CC[C@]2(CCN(c3ccc(OCC(F)(F)F)cc3)C2=O)CC1` [Example 158, 2-((5α,8α)-8-Hydroxy-1-oxo-2-(4-(2,2,2-trifluoroethoxy)phenyl)-2-aza-spiro[4.5]decan-8-yl)-N-methylacetamide], 340 nM.

In the case of `CC(C)OC[C@]1(O)CC[C@]2(CCN(c3ccc([C@@H](O)C(F)(F)F)cc3)C2=O)CC1` [Example 159, (5α,8α)-8-Hydroxy-8-isopropoxymethyl-2-[4-((R)-2,2,2-trifluoro-1-hydroxy-ethyl)-phenyl]-2-aza-spiro[4.5]decan-1-one], the IC50 stood at 20 nM. Consider `O=C1N(c2ccc([C@@H](O)C(F)(F)F)cc2)CC[C@]12CC[C@@](O)(COCC(F)F)CC2` [Example 160, (5α,8α)-8-(2,2-Difluoro-ethoxymethyl)-8-hydroxy-2-[4-((R)-2,2,2-trifluoro-1-hydroxy-ethyl)-phenyl]-2-aza-spiro[4.5]decan-1-one], for which the IC50 amounted to 300 nM. The value for `CCc1ccc(CCN2CC[C@]3(CC[C@@](O)(C(C)C)CC3)C2=O)cc1` [Example 161, (5α,8α)-2-(4-Ethylphenethyl)-8-hydroxy-8-isopropyl-2-aza-spiro[4.5]decan-1-one] was 10 nM; that for `CCC[C@]1(O)CC[C@@]2(CCN(c3ccc(OC(C)C(F)(F)F)cc3)C2=O)CC1` (stereo partly drawn) [Example 163, (5α,8β)-8-Hydroxy-8-propyl-2-[4-(2,2,2-trifluoro-1-methyl-ethoxy)-phenyl]-2-aza-spiro[4.5]decan-1-one] was 790 nM; that for `CCC[C@]1(O)CC[C@]2(CCN(c3ccc(OC(C)C(F)(F)F)cc3)C2=O)CC1` (stereo partly drawn) [Example 164, (5α,8α)-8-Hydroxy-8-propyl-2-[4-(2,2,2-trifluoro-1-methyl-ethoxy)-phenyl]-2-aza-spiro[4.5]decan-1-one] was 20 nM. As for `CCC[C@]1(O)CC[C@]2(CCN(c3ccc(O[C@@H](C)C(F)(F)F)cc3)C2=O)CC1` [Example 164a, (5α,8α)-8-Hydroxy-8-propyl-2-[4-((S)-2,2,2-trifluoro-1-methyl-ethoxy)-phenyl]-2-aza-spiro[4.5]decan-1-one], the IC50 was found to be 20 nM.
